The supplement of paper PMC11451515

How the values were obtained:
Assay in all cases: AUC of viability dose-response curve (% viability x log10 dose units); higher = less sensitive
Details in all cases: 48 h
P12-Ichikawa = test system: P12-Ichikawa
In short: (§1)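 Leukemia cells adapted to each medium (500 or 1000 cells/well, 1536-well plates) were exposed to library compounds in DMSO for 48 h at 37°C at 11 threefold doses, 47 μM to 0.79 nM. Luminescence by CellTiter-Glo One was normalised per plate to DMSO and cell-free wells, then fitted with a four-parameter log-logistic curve on log10 dose. Curves above full viability were scaled and quality-control failures removed before area under the curve was integrated by trapezoidal rule.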

NOMO1 = test system: NOMO1
In short: as §1

SEM cells = test system: SEM cells
In short: as §1

[1] = RPMI 5 mM glucose + 10% dialyzed FBS

| Structure (SMILES) | AUC of viability dose-response curve (P12-Ichikawa; HPLM + 10% dialyzed FBS) | AUC of viability dose-response curve (P12-Ichikawa; RPMI 5 mM glucose + 10% FBS) | AUC of viability dose-response curve (P12-Ichikawa; [1]) | AUC of viability dose-response curve (NOMO1; HPLM + 10% dialyzed FBS) | AUC of viability dose-response curve (NOMO1; RPMI 5 mM glucose + 10% FBS) | AUC of viability dose-response curve (NOMO1; [1]) | AUC of viability dose-response curve (SEM cells; HPLM + 10% dialyzed FBS) | AUC of viability dose-response curve (SEM cells; RPMI 5 mM glucose + 10% FBS) | AUC of viability dose-response curve (SEM cells; [1]) |
| --- | --- | --- | --- | --- | --- | --- | --- | --- | --- |
| Oc1ccc2c3c1O[C@H]1c4[nH]c5c(c4C[C@@]4(O)[C@@H](C2)N(CC2CC2)CC[C@]314)C[C@@]1(O)[C@H]2Cc3ccc(O)c4c3[C@@]1(CCN2CC1CC1)[C@H]5O4 | 463 | 440 | 428 | 448 | 443 | 472 | 422 | 429 | 454 |
| COC1CCC(CC1)N(C(=O)C2CCC(C)CC2)C3=C(SC(=C3)\C4=C\CCCC4)C(O)=O (stereo unspecified) | 438 | 451 | 450 | 442 | 446 | 454 | 455 | 449 | 441 |
| CC(C)(C)c1cc(NC(=O)Nc2ccc(-c3cn4c(n3)sc3cc(OCCN5CCOCC5)ccc34)cc2)no1 | 468 | 409 | 442 | 432 | 394 | 435 | 188 | 232 | 176 |
| CC1CCC(C(=O)N(c2cc(C#CC(C)(C)C)sc2C(=O)O)C2CCC(O)CC2)CC1 (stereo unspecified) | 419 | 394 | 375 | 410 | 408 | 411 | 426 | 430 | 400 |
| COC1=NC(=NC(=C1N\C2=N\CCN2)Cl)C | 413 | 450 | 424 | 446 | 429 | 418 | 420 | 380 | 426 |
| C[C@H]1[C@H](NC(=O)/C(=N/OC(C)(C)C(=O)O)c2csc(N)n2)C(=O)N1[S+](=O)([O-])O | 470 | 471 | 467 | 455 | 475 | 445 | 468 | 471 | 450 |
| CNC(=O)c1ccc(-c2cnc3ncc(Cc4ccc5ncccc5c4)n3n2)cc1F | 469 | 461 | 460 | 460 | 454 | 449 | 458 | 466 | 463 |
| CN(c1ncccc1CNc1nc(Nc2ccc3c(c2)CC(=O)N3)ncc1C(F)(F)F)[S+](C)(=O)[O-] | 462 | 447 | 459 | 451 | 448 | 446 | 362 | 342 | 321 |
| COc1ccc(-c2cc3nccn3c(Nc3ncccc3C(N)=O)n2)cc1OC | 471 | 475 | 471 | 444 | 476 | 473 | 380 | 405 | 352 |
| CN\1C(=O)/C(=C(\N=C1N2CCCC[S+]2([O-])=O)C(=O)NCC3=CC=C(F)C=C3)O | 444 | 462 | 459 | 441 | 475 | 451 | 471 | 458 | 466 |
| OC[C@H]1O[C@@H](O[C@@H]2[C@@H](CO)O[C@](O)(CO)[C@H]2O)[C@H](O)[C@@H](O)[C@H]1O | 456 | 447 | 436 | 448 | 453 | 444 | 458 | 460 | 457 |
| O=NN(CCCl)C(=O)NC1CCCCC1 | 468 | 453 | 462 | 474 | 472 | 475 | 445 | 475 | 433 |
| Cc1ccccc1C(C(=O)NC1CCCCC1)N(C(=O)Cn1ccnc1C)c1cccc(F)c1 (stereo unspecified) | 442 | 461 | 466 | 452 | 456 | 455 | 449 | 462 | 438 |
| COc1cc2nc(N(C)CCCNC(=O)C3CCCO3)nc(N)c2cc1OC (stereo unspecified) | 416 | 431 | 384 | 336 | 297 | 331 | 358 | 355 | 378 |
| COc1cnc(N[S+](=O)([O-])c2ccc(N)cc2)nc1 | 449 | 459 | 460 | 445 | 457 | 448 | 428 | 459 | 443 |
| O=C(NOCC(O)CO)c1cc(Br)c(F)c(F)c1Nc1ccc(I)cc1F (stereo unspecified) | 361 | 333 | 345 | 238 | 244 | 219 | 327 | 340 | 306 |
| CC1(C)CCC[C@]2(C)[C@H]3CC(=O)O[C@]3(C)CC[C@@H]12 | 468 | 456 | 453 | 473 | 468 | 440 | 470 | 463 | 461 |

| Structure (SMILES) | AUC of viability dose-response curve (P12-Ichikawa; HPLM + 10% dialyzed FBS) | AUC of viability dose-response curve (P12-Ichikawa; RPMI 5 mM glucose + 10% FBS) | AUC of viability dose-response curve (P12-Ichikawa; [1]) | AUC of viability dose-response curve (NOMO1; HPLM + 10% dialyzed FBS) | AUC of viability dose-response curve (NOMO1; RPMI 5 mM glucose + 10% FBS) | AUC of viability dose-response curve (NOMO1; [1]) | AUC of viability dose-response curve (SEM cells; HPLM + 10% dialyzed FBS) | AUC of viability dose-response curve (SEM cells; RPMI 5 mM glucose + 10% FBS) | AUC of viability dose-response curve (SEM cells; [1]) |
| --- | --- | --- | --- | --- | --- | --- | --- | --- | --- |
| C/C=C1\NC(=O)[C@H]2CSSCC/C=C\[C@H](CC(=O)N[C@H](C(C)C)C(=O)N2)OC(=O)[C@H](C(C)C)NC1=O | 175 | 174 | 176 | 182 | 181 | 189 | 166 | 170 | 162 |
| C#Cc1cccc(Nc2ncnc3cc(OCCOC)c(OCCOC)cc23)c1 | 445 | 421 | 418 | 433 | 440 | 400 | 425 | 453 | 390 |
| COc1cccc2cc(-c3nc(C4CCC(C(=O)O)CC4)n4ncnc(N)c34)[nH]c12 (stereo unspecified) | 292 | 307 | 308 | 338 | 358 | 359 | 315 | 327 | 329 |
| c1cncc(CN2CCC(n3ncc4c(N5CCOCC5)nc(-c5ccc6[nH]ccc6c5)nc43)CC2)c1 | 426 | 351 | 357 | 374 | 372 | 362 | 376 | 370 | 352 |
| CC(=O)Oc1ccccc1C(=O)O | 466 | 450 | 450 | 461 | 450 | 452 | 463 | 466 | 469 |
| Cl.Cl.Cl.O[C@@H](COc1cccc2ncccc12)CN1CCN([C@@H]2c3ccccc3[C@@H]3[C@H](c4ccccc42)C3(F)F)CC1 | 418 | 391 | 395 | 404 | 397 | 401 | 421 | 418 | 449 |
| COC1=CC=CC2=C1C(=NC(=N2)C3=CC=CS3)NN4C(=O)\C=C(C)/C4=O | 318 | 302 | 297 | 269 | 290 | 265 | 264 | 282 | 270 |
| CC(=O)N(C)c1cccc(-c2ccnc3c(C(=O)c4cccs4)cnn23)c1 | 458 | 454 | 453 | 477 | 470 | 437 | 447 | 456 | 439 |
| CC(C)n1nc(-c2cc3cc(O)ccc3[nH]2)c2c(N)ncnc21 | 360 | 332 | 341 | 350 | 399 | 355 | 306 | 327 | 317 |
| CCCCCOC(=O)NC\1=N\C(=O)N(\C=C1F)[C@@H]2O[C@H](C)[C@@H](O)[C@H]2O | 460 | 443 | 442 | 413 | 434 | 458 | 468 | 466 | 469 |
| O=C(NCC[S+](=O)([O-])c1ccc(C(F)(F)F)cn1)c1ccc(Cl)cc1 | 470 | 455 | 452 | 457 | 461 | 463 | 448 | 450 | 446 |
| CCC1(C)CC(=O)NC1=O (stereo unspecified) | 458 | 459 | 467 | 437 | 421 | 450 | 465 | 462 | 460 |
| CN(C)c1ccc(O)c2c1C[C@H]1C[C@H]3[C@H](N(C)C)C(O)=C(C(N)=O)C(=O)[C@@]3(O)C(O)=C1C2=O | 468 | 452 | 420 | 475 | 474 | 409 | 448 | 467 | 475 |
| CC1=NN(c2ccc(C)c(C)c2)C(=O)/C1=N/Nc1cccc(-c2cccc(C(=O)O)c2)c1O | 448 | 430 | 426 | 431 | 448 | 428 | 453 | 448 | 442 |
| CC1=C(/C=C/C(C)=C/C=C/C(C)=C/C=C/C=C(C)/C=C/C=C(C)/C=C/C2=C(C)CCCC2(C)C)C(C)(C)CCC1 | 469 | 465 | 440 | 450 | 444 | 459 | 477 | 458 | 474 |
| Cc1c(CN2CCN(C(=O)[C@H](C)O)CC2)sc2c(N3CCOCC3)nc(-c3cnc(N)nc3)nc12 | 401 | 338 | 345 | 318 | 352 | 308 | 285 | 304 | 284 |
| CC\1=C(C(\N=C(/N1)C2=CC(=NC=C2)Cl)C3=C(F)C=C(Cl)C=C3)/C(=O)NC4=C(F)C=C5[NH]N=CC5=C4 (stereo unspecified) | 440 | 439 | 441 | 459 | 443 | 457 | 408 | 405 | 423 |
